Results on seven molecules are retold here after patent publication US9133212B1, “Inhibitors of hemeprotein-catalyzed lipid peroxidation” (Vanderbilt University, priority 2005, dated 2015).

For series [1], the target named is T1, COX-1 (Homo sapiens, UniProt P23219). Put plainly: Inhibition of COX-1 oxidation of arachidonic acid (Example 6). In kind it is biochemical. As to the method: (§1) The inhibition of the lipid peroxidation produced by myoglobin (Mb) and COX-1 by the different analogs was tested. Values represent the IC50 for each hemeprotein and are expressed as means±S.E.M. a: value reported from (1.). b: value reported from (3).
T1 sequence (P23219 24-599, species assumed): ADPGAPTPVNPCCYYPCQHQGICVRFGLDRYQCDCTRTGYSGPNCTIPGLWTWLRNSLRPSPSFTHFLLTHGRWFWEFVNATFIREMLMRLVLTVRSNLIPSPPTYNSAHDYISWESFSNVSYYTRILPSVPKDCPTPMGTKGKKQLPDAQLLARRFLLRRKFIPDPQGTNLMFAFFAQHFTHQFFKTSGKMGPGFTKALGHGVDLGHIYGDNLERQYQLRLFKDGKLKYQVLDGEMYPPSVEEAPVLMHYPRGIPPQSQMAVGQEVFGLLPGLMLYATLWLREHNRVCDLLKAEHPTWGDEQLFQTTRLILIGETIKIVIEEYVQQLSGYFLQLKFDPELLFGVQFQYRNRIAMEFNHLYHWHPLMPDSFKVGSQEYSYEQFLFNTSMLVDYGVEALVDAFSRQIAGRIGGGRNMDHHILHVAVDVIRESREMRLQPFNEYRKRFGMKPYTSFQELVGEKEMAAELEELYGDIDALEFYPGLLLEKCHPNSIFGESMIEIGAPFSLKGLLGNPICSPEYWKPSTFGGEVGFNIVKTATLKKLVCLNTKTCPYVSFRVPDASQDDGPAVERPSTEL

Another series concerns HepG2 cells. Put plainly: Direct cellular toxicity (total cellular ATP levels). In kind it is cell-based. To be noted: Homo sapiens, concentration causing a 50% decrease in total cellular ATP levels, read-out: Cellular Toxicity (EC50, μM ± SD). An excerpt:
Microsomal stability is expressed as % of unmodified compound remaining after reaction. Cellular toxicity is expressed as the con-centration causing a 50% decrease in total cellular ATP levels. Values represent means±S.E.M.

A short description of the next series: Microsomal stability. Conditions: % of unmodified compound remaining after reaction.
In another series the target is T2, myoglobin (Mb) (Homo sapiens, UniProt P02144).
T2 sequence (P02144 1-154): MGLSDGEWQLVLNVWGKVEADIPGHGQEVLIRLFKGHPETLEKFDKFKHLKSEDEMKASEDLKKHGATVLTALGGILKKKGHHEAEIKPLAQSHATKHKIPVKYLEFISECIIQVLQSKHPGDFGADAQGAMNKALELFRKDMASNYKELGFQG
Put plainly: Inhibition of myoglobin-induced arachidonic acid oxidation. In kind it is biochemical. On the procedure: as §1

Another series has as its system HepG2 liver cell line. As to the method:
HepG2 were plated in multiple 96-well plates at 2×10^4 cells per well and pretreated with ethanol 100 μM for 2 hours. […] Cell viability after 24 h was determined by measuring ATP levels by luminescence assay.

The target in the next series is PGHS-1 (COX-1) (Homo sapiens, UniProt P23219). Put plainly: Inhibition of PGHS-1 (COX-1), [14C]arachidonic acid oxidation. In kind it is biochemical. Conditions: for IC50: in vitro system. As to the method: At this time the reaction was initiated by addition of 0.5 μM of [14C]arachidonic acid. After 8 seconds, the reaction was stopped by adding an ice cold mixture of diethyl ether/methanol/4.0 M citric acid. PGHS-1 activity was expressed as percent oxidation of arachidonic acid compared with control where no inhibitor was added. Each data point represents the mean±S.E.M of six values.
PGHS-1 (COX-1), sequence (P23219 24-599, species assumed): as the sequence (P23219 24-599, species assumed) above
(§2) Hematin-reconstituted COX-1 (5.4 nM) or COX-2 (10.8 nM) in Tris HCl 100 mM, pH 8.0, 500 μM phenol, was pre-incubated with N-dimethyl pyrimidinol (DM, plain line) or N-dimethyl pyridinol (DR, dashed line) at varying concentrations at 37° C. for 20 minutes. At this time the reaction was initiated by addition of 0.5 μM of [14C] arachidonic acid. After 8 seconds, the reaction was stopped by adding an ice cold mixture of diethyl ether/methanol/4.0 M citric acid. PGHS-1 activity was expressed as percent oxidation of arachidonic acid compared with control where no inhibitor was added. Each data point represents the mean±S.E.M of six values.

For another series, the target named is T3, ferryl myoglobin (Homo sapiens, UniProt P02144).
T3 sequence (P02144 1-154): T2 sequence (P02144 1-154)
Briefly: Reduction of ferryl myoglobin to ferric myoglobin. It counts as biochemical. On the procedure:
Ferryl myoglobin was generated by incubating ferric myoglobin 10 μM in PBS with 10 μM hydrogen peroxide until there was no more change in the peak at 421 nm. At this time, the analogs were added to the cuvette at the final concentrations indicated and spectra were recorded every 15 sec for 2 min. The initial rate of reduction was calculated as the variation of absorbance at 409 nm in the first two minutes after adding the analogs. In this period of time the rates of reduction were linear for each concentration of analog.

The target in another series is T4, PGHS-2 (COX-2) (Homo sapiens, UniProt P35354).
T4 sequence (P35354 18-604): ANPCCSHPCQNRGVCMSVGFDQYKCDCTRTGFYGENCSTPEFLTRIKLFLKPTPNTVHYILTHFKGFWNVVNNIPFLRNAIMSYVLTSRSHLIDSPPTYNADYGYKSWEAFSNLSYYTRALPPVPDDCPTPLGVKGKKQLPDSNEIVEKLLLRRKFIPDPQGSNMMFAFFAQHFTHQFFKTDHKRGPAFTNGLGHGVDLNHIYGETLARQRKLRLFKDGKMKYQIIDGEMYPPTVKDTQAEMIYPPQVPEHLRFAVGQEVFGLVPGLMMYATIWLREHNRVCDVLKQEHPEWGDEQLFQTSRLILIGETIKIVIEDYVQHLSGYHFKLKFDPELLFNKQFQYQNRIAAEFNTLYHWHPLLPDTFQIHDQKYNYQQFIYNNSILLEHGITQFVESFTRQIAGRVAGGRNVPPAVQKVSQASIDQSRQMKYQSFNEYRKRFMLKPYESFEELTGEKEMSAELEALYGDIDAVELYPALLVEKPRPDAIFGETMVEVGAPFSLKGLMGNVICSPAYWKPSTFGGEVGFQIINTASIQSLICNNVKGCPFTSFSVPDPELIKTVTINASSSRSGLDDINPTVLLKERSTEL
Briefly: Inhibition of PGHS-2 (COX-2), [14C]arachidonic acid oxidation. Conditions: for inhibition of PGHS-2 (COX-2), in words: compared with its PGHS-1 inhibition. In kind it is biochemical. On the procedure:
as §2

The subject of series [2] is rat model of rhabdomyolysis. Put plainly: Rat model of rhabdomyolysis (renal failure from myoglobin-catalyzed lipid peroxidation). To be noted: dose that produced plasma levels in the therapeutic range for humans. In kind it is in vivo.
In series [3] the target is T1, COX-1. Conditions: oxidation of arachidonic acid, Table 2, footnote b; read-out: COX-1 IC50 (μM ± SEM), value reported from (3); cited from earlier work.
The target in a further series is hemoglobin (Homo sapiens, UniProt P68871+P69905). Briefly: Inhibition of hemoglobin-catalyzed lipid peroxidation. In kind it is biochemical. To be noted: read-out: IC50 for hemoglobin (hemoprotein-catalyzed lipid peroxidation).
hemoglobin, sequence (P69905 2-142 limits assumed): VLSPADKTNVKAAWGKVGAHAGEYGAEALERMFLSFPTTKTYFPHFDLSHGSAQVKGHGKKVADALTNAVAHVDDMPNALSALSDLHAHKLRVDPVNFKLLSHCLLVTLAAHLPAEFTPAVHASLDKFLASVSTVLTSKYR
hemoglobin, sequence (P68871 2-147 limits assumed): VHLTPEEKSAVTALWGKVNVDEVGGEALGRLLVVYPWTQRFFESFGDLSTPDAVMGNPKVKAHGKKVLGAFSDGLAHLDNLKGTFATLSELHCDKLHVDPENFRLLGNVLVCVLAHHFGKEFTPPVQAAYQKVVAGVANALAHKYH
The mark [4] stands for this setting: bicyclic compounds, structure table, read-out: Oxidation of AA by COX-1 IC50.
Where [5] appears, read: oxidation of arachidonic acid, Table 2, read-out: COX-1 IC50 (μM ± SEM).
The mark [6] stands for this setting: bicyclic compounds, structure table, read-out: Oxidation of AA by Mb IC50.
The mark [7] stands for this setting: oxidation of arachidonic acid, Table 2, read-out: Mb IC50 (μM ± SEM).

Read-outs that look alike come from different tables or passages of the source.

As usually defined, the IC50 is the midpoint of a concentration-inhibition curve. For orientation: EC50 means the concentration giving half of the maximal effect. On to `O=C1NCc2cc(O)cnc2N1` [Analog 12], for which the IC50 worked out at 451 µM on COX-1 [1] (setting [4]), 451 ± 35 µM at COX-1 [1] (setting [5]), 1.15 ± 0.3 µM on myoglobin (Mb) (setting [6]) and 1.2 ± 0.1 µM on myoglobin (Mb) (setting [7]). Besides, the EC50 in the series on HepG2 cells is 4760 ± 36 µM. Further, the “Microsomal stability % left” value in “Microsomal stability” is 158 ± 33%.

Turning to “2-(dimethylamino)pyrimidin-5-ol [DM-Pym]”, in the series on HepG2 liver cell line, the “cytotoxicity in HepG2 cell line stimulated with ethanol” value is listed as “not cytotoxic”. In addition, the “times more potent as an inhibitor of PGHS-1 than acetaminophen” value on PGHS-1 (COX-1) (relative to acetaminophen) was found to be 10 times. Also, on ferryl myoglobin (relative to acetaminophen), the “times more potent in reducing ferryl myoglobin than acetaminophen” value was determined as 14 times. Further, the “times more potent as an inhibitor of PGHS-2 than acetaminophen” value on PGHS-2 (COX-2) (relative to acetaminophen) is on record as 10 times.

Turning to `CN(C)c1ncc(O)cn1` [DM-Pym, 2-(dimethylamino)pyrimidin-5-ol], the “cytotoxicity in HepG2 cell line stimulated with ethanol” value in the series with HepG2 liver cell line is listed as “does not cause cytotoxicity”. Also, it took 21 µM to reach half-maximal inhibition against PGHS-1 (COX-1) (IC50). On ferryl myoglobin (compared with acetaminophen), the “potency in reducing ferryl myoglobin, in words” value is “remarkably more potent than acetaminophen”. Also, the “inhibition of PGHS-2 (COX-2), in words” value on PGHS-2 (COX-2) is “equally effective”.

In the case of `CN(C)c1ccc(O)cn1` [DM-Pyr, 6-(dimethylamino)pyridin-3-ol], the “inhibition of PGHS-2 (COX-2), in words” value on PGHS-2 (COX-2) is listed as “only a weak inhibitor”.

For `Cc1nc2c(c(C)c1O)CNC(=O)N2` [Analog 13], the “inhibition of COX-1, in words” value at COX-1 [1] (at concentrations up to 1 mM) is on record as “not able to significantly inhibit”. Besides, the IC50 was more than 1000 µM on COX-1 [1] (setting [4]), more than 1000 µM on COX-1 [1] (setting [5]), 2.29 ± 0.6 µM on myoglobin (Mb) (setting [6]) and 2.3 ± 0.4 µM at myoglobin (Mb) (setting [7]). Further, the EC50 in the series with HepG2 cells was 2960 ± 284 µM. In “Microsomal stability”, the “Microsomal stability % left” value is on record as 87 ± 7%.

As to `CC(=O)Nc1ccc(O)cc1` [ApAP, acetaminophen], the entries for the “lipid peroxidation in rhabdomyolysis model” value in series [2] (listed as Acetaminophen) and in series [2] (listed as acetaminophen) were “blocked” and “blocks”, respectively. Moreover, the “renal failure in rhabdomyolysis model” value in series [2] (listed as Acetaminophen) is listed as “prevented”; in [2] (listed as acetaminophen) it was “blocks”. The IC50 at PGHS-1 (COX-1) was 250 µM; on COX-1 [3] it was 372 µM; on hemoglobin it was 15 µM. Further, the EC50 in the series on HepG2 cells was found to be 594 ± 147 µM.

As to `Cc1nc2c(c(C)c1O)COC(=O)N2` [Analog 14], the IC50 at COX-1 [1] (setting [4]) stood at 198 ± 50.1 µM; at COX-1 [1] (setting [5]) it was 198 ± 25 µM; at myoglobin (Mb) (setting [6]) it was 5.34 ± 0.1 µM; on myoglobin (Mb) (setting [7]) it was 5.3 ± 0.1 µM. Further, in the series with HepG2 cells, the EC50 was more than 5000 µM. The “Microsomal stability % left” value in “Microsomal stability” is given as 97 ± 3%.
